Patent publication US20240334932A1, “POLYMORPHS HAVING PESTICIDAL ACTIVITY” (CORTEVA AGRISCIENCE LLC, priority 2021, published 2024)

Columns and labels:
[1] = Dissolution in hexane (anti-solvent); format: physicochemical
[2] = system: adult sweet potato whitefly, B. tabaci; experiment: Knock-down study, treated glass vial bioassay, hexane anti-solvent experiment (Example 13B); format: in vivo; settings: for Effect on B. tabaci behavior compared with the amorphous oil: hexane; for Trt Least Squares Means (proportion scale) Mean: proportion of insects above the 2 cm line: hexane anti-solvent suspension, repeated measures 15-180 min, GLMM
Experimental: In this study, the effect of Compound 1 on the behavior of adult sweet potato whitefly, B. tabaci was evaluated. In general, different forms of Compound 1 (either inventive Polymorph form A, inventive Polymorph form B, or non-crystalline Compound 1, amorphous oil) were applied to the inside of glass vials and adult B. tabaci were transferred into treated vials, exposing them to Compound 1 via contact with the treated glass surface. To quantify the knock-down effect reported previously (Lee et. al. 2013), a line was scribed 2 cm above the bottom of the treated vials and the number of B. tabaci above the 2 cm line were recorded the first three hours following initial exposure. […] This study characterized the effect of Compound 1, Polymorph A and Compound 1, Polymorph B on adult B. tabaci whitefly behavior using a common treated glass vial bioassay to expose the test insects through direct contact (Busvine 1971), and compared those effects in direct head-to-head comparison with non-cystalline Compound 1. Test compounds were either dissolved in acetone (Example 11A) or suspended in a volatile anti-solvent (hexane) (Example 11B), and then evenly coated on the inside of a glass vial using a laboratory-roller. In this experiment, three forms of Compound 1 (Polymorph form A, Polymorph form B, and non-crystalline, amorphous oil) were evaluated for their effect on B. tabaci behavior, polymorph A, polymorph B and an amorphous oil. The samples of Polymorph form A and Polymorph form B were finely milled as described in Example 12. The experimental design of the hexane experiment, including rates (25, 2.5, and 0.25 g/ha), replication (three replications per treatment), and preparation of the treatment suspension was similar to the process described for Example 13A. However, hexane was used instead of acetone. […] Following sonication, samples were again mixed using a vortex mixer immediately before transferring 151 μl of each stock suspension to 11.85 mL of hexane to create the treatment suspension for the 25 g/ha rate (resulting in 0.25 μg/cm^2). The 25 g/ha treatment suspension was serially diluted ten-fold, two times to generate treatment suspensions for the 2.5 and 0.25 g/ha rates. 3 mL of each treatment suspension was transferred into the 11-dram vials and the vials were placed on a laboratory tube roller and rotated at room temperature until the hexane had fully evaporated, leaving an even coating of Compound 1 particles on the inside of the vials. The solvent blank vials were treated with 3 mL of hexane. Following treatment, the vials were stored, infested with approximately 117.4, 47-219 (Mean, min-max) adult B. tabaci, and evaluated as described in the acetone experiment. For each trial and rate, the proportion of insects above the 2 cm line was analyzed with a generalized linear mixed model (GLMM) for repeated measures with binomial response and logit link function (Stroup, 2012). The use of the generalized linear model with binomial distribution for the response, instead of the linear model with normal distribution (ANOVA), allows the correct use of the distributional assumptions and actual sample size (number of insects) used in the experiments. The model included Treatment, Time point, and the interaction Treatment x Time point as fixed effects and the replicate (experimental unit) as random effect. The correlation between repeated measures was modeled with the compound symmetry covariance matrix. The generalized linear mixed models were estimated with the residual pseudo-likelihood method, and the means of the treatment proportions were compared with Tukey's tests (α=0.05) (Stroup 2012). Statistical analyses were performed with SAS Proc GLIMMIX (SAS Software, Version 9.4, SAS Institute Inc., Cary, NC).

[3] = Air milling of polymorphs, PXRD before and after (Example 12); format: physicochemical; settings: Jet Mill to d(0.5)<6 μm and d(0.9)<15 μm
Experimental: Compound 1, Polymorph A and Compound 1, Polymorph B samples were air milled separately with Jet Mill until particle size of d (0.5)<6 μm and d (0.9)<15 μm. Powder X-Ray Diffraction (PXRD) was conducted on the samples before and after the air milling process.

[4] = system: adult sweet potato whitefly, B. tabaci; experiment: Knock-down study, treated glass vial bioassay, acetone experiment (Example 13A); format: in vivo, B. tabaci (Middle East Asia Minor1 (MEAM1) biotype); settings: for Effect on B. tabaci behavior compared with the amorphous oil: acetone; for Trt Least Squares Means (proportion scale) Mean: proportion of insects above the 2 cm line: applied from acetone, repeated measures 15-180 min, GLMM
Experimental: In this study, the effect of Compound 1 on the behavior of adult sweet potato whitefly, B. tabaci was evaluated. In general, different forms of Compound 1 (either inventive Polymorph form A, inventive Polymorph form B, or non-crystalline Compound 1, amorphous oil) were applied to the inside of glass vials and adult B. tabaci were transferred into treated vials, exposing them to Compound 1 via contact with the treated glass surface. To quantify the knock-down effect reported previously (Lee et. al. 2013), a line was scribed 2 cm above the bottom of the treated vials and the number of B. tabaci above the 2 cm line were recorded the first three hours following initial exposure.
This study characterized the effect of Compound 1, Polymorph A and Compound 1, Polymorph B on adult B. tabaci whitefly behavior using a common treated glass vial bioassay to expose the test insects through direct contact (Busvine 1971), and compared those effects in direct head-to-head comparison with non-cystalline Compound 1. Test compounds were either dissolved in acetone (Example 11A) or suspended in a volatile anti-solvent (hexane) (Example 11B), and then evenly coated on the inside of a glass vial using a laboratory-roller.
In this experiment, two forms of Compound 1 (polymorph form B and an amorphous oil) were evaluated for their effect on B. tabaci behavior. Three application rates were evaluated for each form of Compound 1 (25 g/ha, 2.5 g/ha,and 0.25 g/ha), in addition to a solvent blank control. Each treatment and the control were replicated three times. Compound 1 samples were dissolved in acetone and were coated on the inside of a 11-dram screw-top glass vial (Fisherbrand 03-339-21N) (Fisher Scientific, Hampton, NH). […] To treat the vials, a stock solution of each sample was first prepared by dissolving 1 mg of Compound 1 sample (either polymorph form B or an amorphous oil) in 2 ml of acetone. The stock solution was agitated using a laboratory vortex mixer to ensure complete mixture of the solution. 151 μL of each stock solution was added to 11.85 mL of acetone to create the treatment solution for the 25 g/ha rate (resulting in 0.25 μg/cm^2). The 25 g/ha treatment solution was serially diluted ten-fold, two times to generate treatment solutions for the 2.5 and 0.25 g/ha rates. 3 mL of each treatment solution was transferred into the 11-dram vials and the vials were placed on a laboratory tube roller and rotated at room temperature until the acetone had fully evaporated, leaving a coating of Compound 1 on the inside of the vials. The solvent blank vials were treated with 3 mL of acetone. After treatment, the vials were left open in a fume hood overnight at room temperature in preparation for testing the following day. Mixed-sex adult B. tabaci whiteflies (Middle East Asia Minor1 (MEAM1) biotype) were collected from a susceptible colony maintained at Corteva Agriscience (Indianapolis, IN). The adult B. tabaci were anesthetized with CO2 and approximately 66.5, 32-102 (Mean, min-max) were introduced into each of the treated vials and their behavior recorded. To evaluate B. tabaci behavior, a line was scribed 2 cm above the bottom of the vial and the number of individuals above the line were recorded at 15, 30, 45, 60, 90, 120, 150, and 180 min after introduction. Following completion of the experiment, the insects were devitalized by freezing at −30° C. for 72 h after which the total number of insects in each vial was recorded. The percentage of B. tabaci above the 2 cm line was calculated for each rate and was used to graph the effect of Compound 1 on whiteflies over time.
For each trial and rate, the proportion of insects above the 2 cm line was analyzed with a generalized linear mixed model (GLMM) for repeated measures with binomial response and logit link function (Stroup, 2012). […]

Row | Structure (SMILES) | Solubility in hexane [1] | Effect on B. tabaci behavior compared with the amorphous oil ([2]; 0.25 g/ha) | Trt Least Squares Means (proportion scale) Mean: proportion of insects above the 2 cm line ([2]; 0.25 g/ha) | Effect on B. tabaci behavior compared with the amorphous oil ([2]; 2.5 g/ha) | Trt Least Squares Means (proportion scale) Mean: proportion of insects above the 2 cm line ([2]; 2.5 g/ha) | Effect on B. tabaci behavior compared with the amorphous oil ([2]; 25 g/ha) | Trt Least Squares Means (proportion scale) Mean: proportion of insects above the 2 cm line ([2]; 25 g/ha) | Polymorphic form after the air milling process (PXRD) [3] | Effect on B. tabaci behavior compared with the amorphous oil ([4]; 0.25 g/ha) | Trt Least Squares Means (proportion scale) Mean: proportion of insects above the 2 cm line ([4]; 0.25 g/ha) | Effect on B. tabaci behavior compared with the amorphous oil ([4]; 2.5 g/ha) | Trt Least Squares Means (proportion scale) Mean: proportion of insects above the 2 cm line ([4]; 2.5 g/ha) | Effect on B. tabaci behavior compared with the amorphous oil ([4]; 25 g/ha) | Trt Least Squares Means (proportion scale) Mean: proportion of insects above the 2 cm line ([4]; 25 g/ha)
1 | CCN(C(=O)CCS(C)(=O)=O)c1sc(-c2cccnc2)nc1Cl [Compound 1, N-[4-chloro-2-(pyridin-3-yl)-1,3-thiazol-5-yl]-N-ethyl-3-(methylsulfonyl) propanamide] | does not readily dissolve | – | – | – | – | – | – | – | – | – | – | – | – | –
2 | CCN(C(=O)CCS(C)(=O)=O)c1sc(-c2cccnc2)nc1Cl [Polymorph A, N-[4-chloro-2-(pyridin-3-yl)-1,3-thiazol-5-yl]-N-ethyl-3-(methylsulfonyl) propanamide] | – | more negatively affected than those exposed to the amorphous oil | 0.342 | significantly affected when compared directly to the amorphous oil | 0.080 | not a difference in the effect | 0.015 | unchanged | – | – | – | – | – | –
3 | CCN(C(=O)CCS(C)(=O)=O)c1sc(-c2cccnc2)nc1Cl [Polymorph B, N-[4-chloro-2-(pyridin-3-yl)-1,3-thiazol-5-yl]-N-ethyl-3-(methylsulfonyl) propanamide] | – | more negatively affected than those exposed to the amorphous oil | 0.345 | significantly affected when compared directly to the amorphous oil | 0.079 | not a difference in the effect | 0.013 | unchanged | not a difference in the effect | 0.502 | more affected than insects exposed to the amorphous oil | 0.156 | no difference in the effect | 0.115
4 | CCN(C(=O)CCS(C)(=O)=O)c1sc(-c2cccnc2)nc1Cl [amorphous oil, N-[4-chloro-2-(pyridin-3-yl)-1,3-thiazol-5-yl]-N-ethyl-3-(methylsulfonyl) propanamide, reference compound] | – | – | 0.601 | – | 0.453 | – | 0.029 | – | – | 0.295 | – | 0.326 | – | 0.167
